# Source: US20260130907A1 (DANA-FARBER CANCER INSTITUTE, INC., priority 2022, published 2026)
# Read-outs that look alike come from different tables or passages of the source.
# Columns and labels:
# [1] = Metabolic stability in human liver microsome; type: in vitro ADME; conditions: pH 7.4; human liver microsomes with NADPH, 37° C., 0-60 min
# Experimental: • K2HPO4 was dissolved in water to a final concentration of 50 mM, and then adjusted pH to 7.4 with HCl and filtered through a 0.22 μm filter.
# • 1 mg/mL stock of terfenadine/tolbutamide with DMSO was prepared, and then made into quenching solution (5/10 ng/mL terfenadine/tolbutamide) with can.
# • 10 mM test compound stock with DMSO was prepared, and then made into 200 μM working solution with DMSO.
# • 10 mM control compound (dextromethorphan) stock with DMSO was prepared, and then made into 200 μM working solution with DMSO.
# • Liver microsomes were thawed in 37° C. water bath, and then made into 0.63 mg/mL liver microsomes working solution with phosphate buffer.
# • 5 mM NADPH working solution was prepared with phosphate buffer.
# • a) 1.5 μL test compound/control compound working solution was added to 238.5 μL liver microsome (n=1). • b) The solution was pre-incubated at 37° C. for 5 min. • c) The reaction was started by adding 60 μL NADPH working solution. • d) At each time point (0, 5, 15, 30 and 60 min), 30 μL reaction mixture was removed and added to 300 μL quenching solution. • e) All samples were centrifuged at 4,000 rpm at 4° C. for 15 min, then 100 μL of supernatant was transferred with 100 μL water for LC-MS/MS analysis.
# [2] = Kinetic solubility; type: physicochemical; conditions: kinetic from dmso stock
# [3] = biological target: T1, B cell lymphoma 6 (BCL6) (Homo sapiens, UniProt P41182); test: HiBiT cellular degradation assay in SU-DHL-4 cells; type: cell-based; conditions: for DC50: concentration to reach 50% degradation of endogenous SmBiT-tagged BCL6, SU-DHL-4 cells, 24 hours of compound treatment
# T1 construct: Endogenous B cell lymphoma 6 (BCL6) was tagged with the 11-amino acid Small BiT (SmBiT); endogenous in cells; host or cells: SU-DHL-4 (CRISPR/Cas9 knock-in, single cell clone)
# Experimental: DC50 (concentration to reach 50% degradation) values were determined from a cellular degradation assay (HiBiT, Promega™) in Su-DHL-4 cells (Table 1). Endogenous B cell lymphoma 6 (BCL6) was tagged with the 11-amino acid Small BiT (SmBiT) through clustered regularly interspaced short palindromic repeats (CRISPR)/CRISPR-associated protein 9 (Cas9) gene editing and single cell clone selection. After 24 hours of compound treatment, cells were lysed and incubated with Large BiT (LgBiT) protein to reconstitute intact nanoluciferase. Substrate was then added and relative luciferase units were measured. Degradation levels for each treatment were taken as a percentage compared to the control, 100% DMSO (Prism).
# [4] = FaSSIF, read-out: Kinetic solubility (FaSSIF)
# [5] = FeSSIF, read-out: Kinetic solubility (FeSSIF)
# [6] = aqueous buffer, 50 mM phosphate buffer pH 7.4, 24 hours at room temperature, read-out: Kinetic solubility @pH 7.4
microsomal CLint at 1 µM [1] [µL/min/mg],"solubility kinetic at 24 h [2, 4] [µM]","solubility kinetic at 24 h [2, 5] [µM]","solubility kinetic at 24 h [2, 6] [µM]",DC50 [3] [nM],BCL6 degrader status (in words) ([3]; conclusion drawn from Table 1),SMILES
< 3.7,< 1.56,1.82,< 1.56,5,,CNC(=O)COc1cc2cc(Nc3nc(N4C[C@@H](C)C(F)(F)[C@@H](C)C4)ncc3Cl)ccc2n(C)c1=O [Cmp A]
12.3,2.92,216,< 1.56,,,C[C@@H]1CN(c2ncc(Cl)c(Nc3ccc4c(c3)n(CCC(C)(C)O)c(=O)n4C)n2)C[C@H](C)C1(F)F [CCT-369260]
< 6.1,,,266,105,,"C[C@@H]1CN(c2ncc(Cl)c(Nc3ccc4c(c3)n(CCC(C)(C)O)c(=O)n4C)n2)C[C@H](CN)C1(F)F (single isomer, unassigned) [Compound 2a]"
30,< 1.56,213,< 1.56,,,C[C@@H]1C[C@H](C)CN(c2ncc(Cl)c(Nc3ccc4c(c3)n(CCC(C)(C)O)c(=O)n4C)n2)C1 [Cmp B]

# The remaining lines, values behind:
SMILES,microsomal CLint at 1 µM [1] [µL/min/mg],"solubility kinetic at 24 h [2, 4] [µM]","solubility kinetic at 24 h [2, 5] [µM]","solubility kinetic at 24 h [2, 6] [µM]",DC50 [3] [nM],BCL6 degrader status (in words) ([3]; conclusion drawn from Table 1)
CNC(=O)COc1cc2cc(Nc3nc(N4C[C@H](C)C[C@H](C)C4)ncc3Cl)ccc2n(C)c1=O [BI-3802],23.8,2.97,11.3,< 1.56,5,
"CNC(=O)COc1cc2cc(Nc3nc(N4C[C@H](CCN)C(F)(F)[C@H](C)C4)ncc3Cl)ccc2n(C)c1=O (single isomer, unassigned) [Compound 51a]",< 6.1,6.35,113,< 1.56,2,
"C[C@@H]1CN(c2ncc(Cl)c(Nc3ccc4c(c3)n(CCC(C)(C)O)c(=O)n4C)n2)C[C@H](N)C1(F)F [Compound 1, 5-[[2-[(3S,5R)-3-Amino-4,4-difluoro-5-methyl-1-piperidyl]-5-chloro-pyrimidin-4-yl]amino]-3-(3-hydroxy-3-methyl-butyl)-1-methyl-benzimidazol-2-one]",< 6.1,208,232,108,20,degraders of BCL6
